Test results published in patent publication US6737383B1, “Herbicidal oxadiazolidines” (priority 1999, dated 2004).

Key:
smallflower flatsedge = assay: Test B flood test smallflower flatsedge; type: in vivo, Cyperus difformis
How it was run: (§1)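 Each value is a visual injury score relative to controls, with 10 meaning complete control and 0 no effect. Evaluation took place twelve to sixteen days after the 2-leaf-stage plants were treated and kept in the greenhouse.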

pigweed = assay: Test B pre/postemergence pigweed; type: in vivo, Amaranthus retroflexus
How it was run: (§2)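 Response is a visual 0-to-10 score relative to untreated plants, where 0 means no effect and 10 means complete control, taken twelve to sixteen days after application. Treatments went onto soil at planting and onto foliage of 1- to 4-leaf plants, using a surfactant-containing non-phytotoxic solvent.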

duck salad = assay: Test B flood test duck salad; type: in vivo, Heteranthera limosa
How it was run: as §1

blackgrass = assay: Test B pre/postemergence blackgrass; type: in vivo, Alopecurus myosuroides
How it was run: as §2

wheat = assay: Test B pre/postemergence wheat; type: in vivo, Triticum aestivum
How it was run: as §2

sugar beet = assay: Test B pre/postemergence sugar beet; type: in vivo, Beta vulgaris
How it was run: as §2

surinam grass = assay: Test B pre/postemergence surinam grass; type: in vivo, Brachiaria decumbens
How it was run: as §2

rice = assay: Test B flood test rice; type: in vivo, Oryza sativa
How it was run: as §1

velvetleaf = assay: Test B pre/postemergence velvetleaf; type: in vivo, Abutilon theophrasti
How it was run: as §2

soybean = assay: Test B pre/postemergence soybean; type: in vivo, Glycine max
How it was run: as §2

bedstraw = assay: Test B pre/postemergence bedstraw; type: in vivo, Galium aparine
How it was run: as §2

crabgrass = assay: Test B pre/postemergence crabgrass; type: in vivo, Digitaria sanguinalis
How it was run: as §2

rape = assay: Test B pre/postemergence rape; type: in vivo, Brassica napus
How it was run: as §2

purple nutsedge = assay: Test B pre/postemergence purple nutsedge; type: in vivo, Cyperus rotundus
How it was run: as §2

corn = assay: Test B pre/postemergence corn; type: in vivo, Zea mays
How it was run: as §2

wild oat = assay: Test B pre/postemergence wild oat; type: in vivo, Avena fatua
How it was run: as §2

[1] = Rate 62 g/ha, headed Pre-emergence (flood test species), scale 0 to 10 (0 no effect, 10 complete control)
[2] = Rate 125 g/ha, Pre-emergence, flood test species, scale 0 to 10 where 0 is no effect and 10 is complete control
[3] = Rate 250 g/ha, Pre-emergence, flood-test species, scale 0 to 10, 0 is no effect, 10 is complete control
[4] = Rate 500 g/ha, Pre-emergence, flood test species, scale 0 to 10 (0 no effect, 10 complete control)
[5] = Postemergence, Rate 125 g/ha, scale 0 to 10, 0 is no effect, 10 is complete control
[6] = Preemergence, Rate 62 g/ha, scale of 0 to 10 where 0 is no effect and 10 is complete control
[7] = Preemergence, Rate 250 g/ha, scale of 0 to 10 where 0 is no effect and 10 is complete control
[8] = Preemergence, Rate 500 g/ha, scale of 0 to 10 where 0 is no effect and 10 is complete control
[9] = Rate 62 g/ha, Postemergence, scale 0 to 10 (0 no effect, 10 complete control)
[10] = Rate 500 g/ha, Postemergence, scale 0 to 10, 0 no effect, 10 complete control
[11] = Rate 250 g/ha, Postemergence, scale of 0 to 10 where 0 is no effect and 10 is complete control

Q: Which “S. Flatsedge plant response rating” value (smallflower flatsedge; [1]) does the source give for `CC(C)N(C(=O)n1oc(=O)n(-c2ccc3ccccc3c2)c1=O)c1ccc(F)cc1F` [Compound 335] here?
A: The value was 0.

Q: What about the “S. Flatsedge plant response rating” value (smallflower flatsedge; [2]) of the same compound?
A: Its value is 0.

Q: And the “S. Flatsedge plant response rating” value (smallflower flatsedge; [3])?
A: Its value is 0.

Q: What about the “S. Flatsedge plant response rating” value (smallflower flatsedge; [4]) of the same compound?
A: Its value is 0.

Q: And the “Plant response rating, Redroot pigweed” value (pigweed; [5])?
A: Its value is 0.

Q: And the “Redroot pigweed plant response rating” value (pigweed; [6])?
A: Its value is 0.

Q: What about the “Redroot pigweed plant response rating (0 to 10 scale)” value (pigweed; Preemergence, Rate 125 g/ha) of the same compound?
A: The value was 0.

Q: And the “Redroot pigweed plant response rating” value (pigweed; [7])?
A: The value was 0.

Q: What about the “Redroot pigweed plant response rating” value (pigweed; [8]) of the same compound?
A: The value was 0.

Q: And the “Redroot pigweed plant response rating” value (pigweed; [9])?
A: Its value is 0.

Q: What about the “Plant response rating, Redroot pigweed” value (pigweed; [10]) of the same compound?
A: Its value is 0.

Q: And the “Ducksalad plant response rating” value (duck salad; [1])?
A: Its value is 0.

Q: What about the “Ducksalad plant response rating” value (duck salad; [2]) of the same compound?
A: The value was 0.

Q: What about the “Ducksalad plant response rating” value (duck salad; [3]) of the same compound?
A: Its value is 0.

Q: What about the “Ducksalad plant response rating” value (duck salad; [4]) of the same compound?
A: The value was 0.

Q: And the “Plant response rating, Blackgrass” value (blackgrass; [5])?
A: Its value is 0.

Q: And the “Blackgrass plant response rating” value (blackgrass; [6])?
A: The value was 0.

Q: And the “Blackgrass plant response rating (0 to 10 scale)” value (blackgrass; Preemergence, Rate 125 g/ha)?
A: The value was 0.

Q: What about the “Blackgrass plant response rating” value (blackgrass; [7]) of the same compound?
A: Its value is 0.

Q: And the “Blackgrass plant response rating” value (blackgrass; [8])?
A: The value was 0.

Q: What about the “Blackgrass plant response rating” value (blackgrass; [9]) of the same compound?
A: The value was 0.

Q: And the “Plant response rating, Blackgrass” value (blackgrass; [11])?
A: The value was 0.

Q: What about the “Plant response rating, Blackgrass” value (blackgrass; [10]) of the same compound?
A: Its value is 0.

Q: What about the “Plant response rating, Wheat” value (wheat; [5]) of the same compound?
A: Its value is 0.

Q: And the “Wheat plant response rating” value (wheat; [6])?
A: The value was 0.

Q: What about the “Wheat plant response rating (0 to 10 scale)” value (wheat; Preemergence, Rate 125 g/ha) of the same compound?
A: Its value is 0.

Q: And the “Wheat plant response rating” value (wheat; [7])?
A: The value was 0.

Q: What about the “Wheat plant response rating” value (wheat; [8]) of the same compound?
A: Its value is 0.

Q: And the “Wheat plant response rating” value (wheat; [9])?
A: The value was 0.

Q: And the “Plant response rating, Wheat” value (wheat; [10])?
A: Its value is 0.

Q: And the “Plant response rating, Sugarbeets” value (sugar beet; [5])?
A: The value was 0.

Q: What about the “Sugarbeets plant response rating” value (sugar beet; [6]) of the same compound?
A: Its value is 0.

Q: And the “Sugarbeets plant response rating (0 to 10 scale)” value (sugar beet; Preemergence, Rate 125 g/ha)?
A: Its value is 0.

Q: And the “Sugarbeets plant response rating” value (sugar beet; [7])?
A: Its value is 0.

Q: And the “Sugarbeets plant response rating” value (sugar beet; [8])?
A: Its value is 0.

Q: What about the “Sugarbeets plant response rating” value (sugar beet; [9]) of the same compound?
A: The value was 0.

Q: What about the “Plant response rating, Sugarbeets” value (sugar beet; [10]) of the same compound?
A: Its value is 0.

Q: What about the “Plant response rating, B. signalgrass” value (surinam grass; [5]) of the same compound?
A: Its value is 0.

Q: What about the “B. signalgrass plant response rating” value (surinam grass; [6]) of the same compound?
A: The value was 0.

Q: And the “B. signalgrass plant response rating (0 to 10 scale, 0 is no effect, 10 is complete control)” value (surinam grass; Preemergence, Rate 125 g/ha)?
A: Its value is 0.

Q: And the “B. signalgrass plant response rating” value (surinam grass; [7])?
A: Its value is 0.

Q: And the “B. signalgrass plant response rating” value (surinam grass; [8])?
A: The value was 0.

Q: And the “B. signalgrass plant response rating” value (surinam grass; [9])?
A: The value was 0.

Q: And the “Plant response rating, B. signalgrass” value (surinam grass; [11])?
A: The value was 0.

Q: What about the “Plant response rating, B. signalgrass” value (surinam grass; [10]) of the same compound?
A: Its value is 0.

Q: And the “Rice plant response rating” value (rice; [1])?
A: Its value is 0.

Q: What about the “Rice plant response rating” value (rice; [2]) of the same compound?
A: Its value is 0.

Q: What about the “Rice plant response rating” value (rice; [3]) of the same compound?
A: The value was 0.

Q: And the “Rice plant response rating” value (rice; [4])?
A: Its value is 0.

Q: And the “Plant response rating, Velvetleaf” value (velvetleaf; [5])?
A: Its value is 0.

Q: What about the “Velvetleaf plant response rating” value (velvetleaf; [6]) of the same compound?
A: The value was 0.

Q: And the “Velvetleaf plant response rating (0 to 10 scale)” value (velvetleaf; Preemergence, Rate 125 g/ha)?
A: Its value is 0.

Q: And the “Velvetleaf plant response rating” value (velvetleaf; [7])?
A: Its value is 0.

Q: What about the “Velvetleaf plant response rating” value (velvetleaf; [8]) of the same compound?
A: The value was 0.

Q: What about the “Velvetleaf plant response rating” value (velvetleaf; [9]) of the same compound?
A: The value was 0.

Q: What about the “Plant response rating, Velvetleaf” value (velvetleaf; [10]) of the same compound?
A: The value was 0.

Q: And the “Plant response rating, Soybean” value (soybean; [5])?
A: Its value is 2.

Q: And the “Soybean plant response rating” value (soybean; [6])?
A: Its value is 0.

Q: And the “Soybean plant response rating (0 to 10 scale)” value (soybean; Preemergence, Rate 125 g/ha)?
A: The value was 0.

Q: What about the “Soybean plant response rating” value (soybean; [7]) of the same compound?
A: Its value is 0.

Q: What about the “Soybean plant response rating” value (soybean; [8]) of the same compound?
A: The value was 0.

Q: And the “Soybean plant response rating” value (soybean; [9])?
A: The value was 1.

Q: And the “Plant response rating, Soybean” value (soybean; [10])?
A: The value was 2.

Q: And the “Plant response rating, Bedstraw” value (bedstraw; [5])?
A: Its value is 0.

Q: And the “Bedstraw plant response rating” value (bedstraw; [6])?
A: Its value is 0.

Q: What about the “Bedstraw plant response rating (0 to 10 scale)” value (bedstraw; Preemergence, Rate 125 g/ha) of the same compound?
A: The value was 0.

Q: And the “Bedstraw plant response rating” value (bedstraw; [7])?
A: The value was 0.

Q: And the “Bedstraw plant response rating” value (bedstraw; [9])?
A: Its value is 0.

Q: And the “Plant response rating, Bedstraw” value (bedstraw; [11])?
A: The value was 0.

Q: And the “Plant response rating, Bedstraw” value (bedstraw; [10])?
A: Its value is 4.

Q: What about the “Plant response rating, Crabgrass” value (crabgrass; [5]) of the same compound?
A: Its value is 0.

Q: What about the “Crabgrass plant response rating” value (crabgrass; [6]) of the same compound?
A: Its value is 0.

Q: And the “Crabgrass plant response rating (0 to 10 scale)” value (crabgrass; Preemergence, Rate 125 g/ha)?
A: Its value is 0.

Q: And the “Crabgrass plant response rating” value (crabgrass; [7])?
A: Its value is 2.

Q: What about the “Crabgrass plant response rating” value (crabgrass; [8]) of the same compound?
A: Its value is 2.

Q: And the “Crabgrass plant response rating” value (crabgrass; [9])?
A: Its value is 0.

Q: What about the “Plant response rating, Crabgrass” value (crabgrass; [10]) of the same compound?
A: Its value is 0.

Q: What about the “Plant response rating, Rape” value (rape; [5]) of the same compound?
A: Its value is 0.

Q: And the “Rape plant response rating” value (rape; [6])?
A: Its value is 0.

Q: And the “Rape plant response rating (0 to 10 scale)” value (rape; Preemergence, Rate 125 g/ha)?
A: Its value is 0.

Q: What about the “Rape plant response rating” value (rape; [7]) of the same compound?
A: Its value is 0.

Q: And the “Rape plant response rating” value (rape; [8])?
A: Its value is 0.

Q: And the “Rape plant response rating” value (rape; [9])?
A: Its value is 0.

Q: And the “Plant response rating, Rape” value (rape; [10])?
A: Its value is 0.

Q: What about the “Plant response rating, Nutsedge” value (purple nutsedge; [5]) of the same compound?
A: Its value is 0.

Q: And the “Nutsedge plant response rating” value (purple nutsedge; [6])?
A: Its value is 0.

Q: What about the “Nutsedge plant response rating (0 to 10 scale)” value (purple nutsedge; Preemergence, Rate 125 g/ha) of the same compound?
A: Its value is 0.

Q: What about the “Nutsedge plant response rating” value (purple nutsedge; [7]) of the same compound?
A: The value was 0.

Q: And the “Nutsedge plant response rating” value (purple nutsedge; [8])?
A: The value was 0.

Q: What about the “Nutsedge plant response rating” value (purple nutsedge; [9]) of the same compound?
A: Its value is 0.

Q: And the “Plant response rating, Nutsedge” value (purple nutsedge; [10])?
A: The value was 0.

Q: And the “Plant response rating, Corn” value (corn; [5])?
A: The value was 0.

Q: And the “Corn plant response rating” value (corn; [6])?
A: Its value is 0.

Q: What about the “Corn plant response rating (0 to 10 scale)” value (corn; Preemergence, Rate 125 g/ha) of the same compound?
A: The value was 0.

Q: What about the “Corn plant response rating” value (corn; [7]) of the same compound?
A: The value was 0.

Q: And the “Corn plant response rating” value (corn; [8])?
A: The value was 0.

Q: What about the “Corn plant response rating” value (corn; [9]) of the same compound?
A: The value was 0.

Q: What about the “Plant response rating, Corn” value (corn; [10]) of the same compound?
A: The value was 0.

Q: What about the “Plant response rating, Wild oats” value (wild oat; [5]) of the same compound?
A: The value was 0.

Q: And the “Wild oats plant response rating” value (wild oat; [6])?
A: Its value is 0.

Q: What about the “Wild oats plant response rating (0 to 10 scale)” value (wild oat; Preemergence, Rate 125 g/ha) of the same compound?
A: The value was 0.

Q: What about the “Wild oats plant response rating” value (wild oat; [7]) of the same compound?
A: The value was 0.

Q: And the “Wild oats plant response rating” value (wild oat; [8])?
A: The value was 0.

Q: And the “Wild oats plant response rating” value (wild oat; [9])?
A: The value was 0.

Q: And the “Plant response rating, Wild oats” value (wild oat; [10])?
A: The value was 0.
